Experimental data taken from the NIST ThermoML archive (doi:10.1021/acs.jced.8b00008).

Assay: xn = mol fraction of the nth substance listed
Details: for surface tension liquid-gas: 293 K, Pendant drop shape; for viscosity / speed of sound / mass density: 102 kPa, Liquid; for viscosity: Concentric cylinders viscometry; for speed of sound: Single path-length method; for mass density: Vibrating tube method

CCCCCCCCCCCCCCCC [hexadecane] + CC1CCCCC1
Details	surface tension liquid-gas [mN/m]
x2 = 0.1018	26.8
x2 = 0.2	26.7
x2 = 0.3	26.4
x2 = 0.4004	26.2
x2 = 0.4999	26
x2 = 0.6	25.5
x2 = 0.7	25.2
x2 = 0.8	24.7
x2 = 0.9	24.3

Details	mass density [kg/m3]	speed of sound [m/s]	viscosity [mPa·s]
293.15 K, x2 = 0.1018	773	1350.5	3.14
293.15 K, x2 = 0.2	772.68	1343.5	2.83
293.15 K, x2 = 0.3	772.21	1334.5	2.54
293.15 K, x2 = 0.4004	771.85	1325.6	2.24
293.15 K, x2 = 0.4999	771.43	1316.2	1.96
293.15 K, x2 = 0.6	770.99	1303.5	1.68
293.15 K, x2 = 0.7	770.52	1289.9	1.42
293.15 K, x2 = 0.8	770.06	1274.4	1.174
293.15 K, x2 = 0.9	769.64	1256.8	0.943
298.15 K, x2 = 0.1018	769.51	1331.5	2.81
298.15 K, x2 = 0.2	769.17	1324.6	2.54
298.15 K, x2 = 0.3	768.68	1315.4	2.29
298.15 K, x2 = 0.4004	768.28	1306.5	2.03
298.15 K, x2 = 0.4999	767.82	1297.4	1.79
298.15 K, x2 = 0.6	767.29	1284.3	1.54
298.15 K, x2 = 0.7	766.75	1270.5	1.31
298.15 K, x2 = 0.8	766.16	1254.1	1.084
298.15 K, x2 = 0.9	765.56	1236	0.892
303.15 K, x2 = 0.1018	766.03	1312.7	2.52
303.15 K, x2 = 0.2	765.67	1306	2.29
303.15 K, x2 = 0.3	765.15	1296.5	2.08
303.15 K, x2 = 0.4004	764.7	1287.5	1.85
303.15 K, x2 = 0.4999	764.21	1278.4	1.65
303.15 K, x2 = 0.6	763.6	1265	1.43
303.15 K, x2 = 0.7	762.96	1250.9	1.22
303.15 K, x2 = 0.8	762.24	1233.9	1.012
303.15 K, x2 = 0.9	761.47	1215.2	0.82
313.15 K, x2 = 0.1018	759.08	1275.9	2.06
313.15 K, x2 = 0.2	758.66	1269.1	1.89
313.15 K, x2 = 0.3	758.08	1259.4	1.72
313.15 K, x2 = 0.4004	757.54	1250.2	1.55
313.15 K, x2 = 0.4999	756.95	1240.7	1.38
313.15 K, x2 = 0.6	756.18	1226.9	1.2
313.15 K, x2 = 0.7	755.37	1212.1	1.03
313.15 K, x2 = 0.8	754.38	1194.1	0.906
313.15 K, x2 = 0.9	753.24	1174.1	0.739
323.15 K, x2 = 0.1018	752.12	1239.9	1.72
323.15 K, x2 = 0.2	751.64	1233	1.58
323.15 K, x2 = 0.3	751	1223	1.45
323.15 K, x2 = 0.4004	750.36	1213.5	1.31
323.15 K, x2 = 0.4999	749.66	1203.7	1.2
323.15 K, x2 = 0.6	748.73	1189.3	1.05
323.15 K, x2 = 0.7	747.73	1173.8	0.91
323.15 K, x2 = 0.8	746.47	1154.9	0.768
323.15 K, x2 = 0.9	744.96	1133.7	0.629
333.15 K, x2 = 0.1018	745.15	1204.9	1.46
333.15 K, x2 = 0.2	744.61	1197.7	1.35
333.15 K, x2 = 0.3	743.89	1187.7	1.24
333.15 K, x2 = 0.4004	743.16	1177.8	1.16
333.15 K, x2 = 0.4999	742.34	1167.2	1.04
333.15 K, x2 = 0.6	741.25	1152.3	0.924
333.15 K, x2 = 0.7	740.03	1136	0.801
333.15 K, x2 = 0.8	738.5	1116.2	0.68
333.15 K, x2 = 0.9	736.61	1094.2	0.558
